Test results taken from patent US6455540B1, “Methods of use of quinolone compounds against anaerobic pathogenic bacteria” (priority 1999, dated 2002).

Assays:
Experiment in all cases: Agar dilution MIC
Porphyromonas macaccae = type: cell-based; conditions: Porphyromonas, 13 isolates
Fusobacterium varium = type: cell-based; conditions: Fusobacterium varium, 17 isolates
Bacteroides gracilis = type: cell-based, Bacteroides gracilis (Campylobacter gracilis); conditions: 11 isolates
Clostridium ramosum = type: cell-based; conditions: Thomasclavelia ramosa, 10 isolates
[1] = test system: Anaerobiospirillum succiniciproducens; type: cell-based; conditions: 3 isolates
[2] = test system: Peptostreptococcus asaccharolyticus; type: cell-based; conditions: Peptoniphilus asaccharolyticus, 11 isolates
Prevotella bivia = type: cell-based; conditions: Prevotella bivia, 21 isolates
[3] = test system: Prevotella denticola/loeschii group; type: cell-based; conditions: 6 isolates
[4] = test system: Fusobacterium spp group 1; type: cell-based; conditions: 19 isolates
Prevotella intermedia = type: cell-based; conditions: 11 isolates
[5] = test system: Clostridium clostridioforme; type: cell-based; conditions: Clostridium, 11 isolates
Clostridium inocuum = type: cell-based, Clostridium innocuum; conditions: Clostridium, 11 isolates
[6] = test system: Peptostreptococcus micros; type: cell-based; conditions: 12 isolates
Porphyromonas spp. = type: cell-based, Porphyromonas cangingivalis, cansulci, circumdentaria, levii; conditions: Porphyromonas, 11 isolates
[7] = test system: Actinomyces odontolyticus; type: cell-based; conditions: Schaalia odontolytica, 10 isolates
[8] = test system: Prevotella buccae-oris group; type: cell-based; conditions: Prevotella, 22 isolates
Actinomyces israelii = type: cell-based; conditions: 6 isolates
[9] = test system: Porphyromonas asaccharolyticus; type: cell-based, Porphyromonas asaccharolytica; conditions: Porphyromonas, 11 isolates
Bacteroides tectum = type: cell-based; conditions: 22 isolates
Porphyromonas gingivalis = type: cell-based; conditions: Porphyromonas gingivalis, 13 isolates
[10] = test system: Anaerobiospirillum thomasii; type: cell-based; conditions: Anaerobiospirillum thomasii, 13 isolates
[11] = test system: Peptostreptococcus magnus; type: cell-based; conditions: Finegoldia magna, 13 isolates
Fusobacterium russii = type: cell-based
Porphyromonas canoris = type: cell-based; conditions: Porphyromonas canoris, 10 isolates
Bacteroides ureolyticus = type: cell-based; conditions: 17 isolates
Bilophila wadsworthia = type: cell-based; conditions: 16 isolates, agar supplemented with pyruvate
Veillonella spp. = type: cell-based; conditions: Veillonella, 24 isolates
[12] = test system: Prevotella heparinolytica; type: cell-based; conditions: 16 isolates
Clostridium dfficile = type: cell-based, Clostridium difficile; conditions: Clostridium
[13] = test system: Prevotella melaninogenica; type: cell-based; conditions: Prevotella melaninogenica, 12 isolates
[14] = test system: Fusobacterium spp. group 2; type: cell-based, Fusobacterium mortiferum, necrogenes, ulcerans; conditions: Fusobacterium, 12 isolates
[15] = test system: Peptostreptococcus prevotii; type: cell-based; conditions: Anaerococcus prevotii, read-out: Minimal Inhibitory Concentration 50% (MIC50); 9 isolates
[16] = read-out: Minimal Inhibitory Concentration 50% (MIC50)
[17] = read-out: Minimal Inhibitory Concentration 90% (MIC90)

CC[C@H]1OC(=O)[C@H](C)[C@@H](O[C@H]2C[C@@](C)(OC)[C@@H](O)[C@H](C)O2)[C@H](C)[C@@H](O[C@@H]2O[C@H](C)C[C@H](N(C)C)[C@H]2O)[C@](C)(O)C[C@@H](C)CN(C)[C@H](C)[C@@H](O)[C@]1(C)O [Azithromycin]
0.03 to 32 µg/mL: Minimal Inhibitory Concentration Range (Fusobacterium russii)
0.06 to 32 µg/mL: Minimal Inhibitory Concentration Range [4]
> 32 mg/L: MIC90 (Fusobacterium varium; [17]) | MIC90 (Clostridium ramosum; [17]) | MIC90 [2, 17] | MIC90 [5, 17] | MIC90 (Clostridium inocuum; [17]) | MIC50 (Clostridium inocuum; [16]) | MIC90 [9, 17] | MIC90 [11, 17] | MIC90 (Veillonella spp.; [17]) | MIC90 (Clostridium dfficile; read-out: Minimal Inhibitory Concentration 90% (MIC90), 14 isolates)
0.06 µg/mL: Minimal Inhibitory Concentration Range (Actinomyces israelii)
0.03 mg/L: MIC50 [7, 16]
0.06 to 16 µg/mL: Minimal Inhibitory Concentration Range [3]
8 mg/L: MIC90 ([4]; Fusobacterium, GROUP1, read-out: Minimal Inhibitory Concentration 90% (MIC90))
0.06 to 0.25 µg/mL: Minimal Inhibitory Concentration Range (Bacteroides ureolyticus)
0.06 mg/L: MIC90 [7, 17] | MIC50 (Actinomyces israelii; Actinomyces israelii, read-out: Minimal Inhibitory Concentration 50% (MIC50)) | MIC50 (Bacteroides ureolyticus; Campylobacter ureolyticus, read-out: Minimal Inhibitory Concentration 50% (MIC50))
0.06 to 0.5 µg/mL: Minimal Inhibitory Concentration Range (Bacteroides gracilis)
32 mg/L: MIC50 (Fusobacterium varium; [16]) | MIC90 (Fusobacterium russii; Fusobacterium russii, read-out: Minimal Inhibitory Concentration 90% (MIC90)) | MIC90 [13, 17] | MIC90 [14, 17] | MIC50 [15]
16 mg/L: MIC50 [5, 16] | MIC90 (Bilophila wadsworthia; Bilophila wadsworthia, read-out: Minimal Inhibitory Concentration 90% (MIC90)) | MIC50 [14, 16]
4 mg/L: MIC50 [2, 16] | MIC50 [11, 16] | MIC50 (Bilophila wadsworthia; Bilophila wadsworthia, read-out: Minimal Inhibitory Concentration 50% (MIC50)) | MIC50 (Veillonella spp.; [16])
0.25 mg/L: MIC50 (Clostridium ramosum; [16]) | MIC50 (Porphyromonas spp.; [16]) | MIC50 [9, 16] | MIC50 (Porphyromonas gingivalis; [16]) | MIC50 (Fusobacterium russii; Fusobacterium russii, read-out: Minimal Inhibitory Concentration 50% (MIC50)) | MIC50 (Porphyromonas canoris; [16]) | MIC90 (Porphyromonas canoris; [17]) | MIC90 (Bacteroides ureolyticus; Campylobacter ureolyticus, read-out: Minimal Inhibitory Concentration 90% (MIC90)) | MIC50 [13, 16]
2 mg/L: MIC90 (Bacteroides tectum; Bacteroides pyogenes, read-out: Minimal Inhibitory Concentration 90% (MIC90)) | MIC50 (Clostridium dfficile; [16])
1 to 16 µg/mL: Minimal Inhibitory Concentration Range (Bilophila wadsworthia)
0.5 mg/L: MIC50 (Porphyromonas macaccae; [16]) | MIC90 (Porphyromonas macaccae; [17]) | MIC90 (Bacteroides gracilis; Campylobacter gracilis, read-out: Minimal Inhibitory Concentration 90% (MIC90)) | MIC50 ([1]; Anaerobiospirillum succiniciproducens, read-out: Minimal Inhibitory Concentration 50% (MIC50)) | MIC50 (Prevotella bivia; [16]) | MIC50 ([3]; Prevotella denticola, read-out: Minimal Inhibitory Concentration 50% (MIC50)) | MIC90 (Prevotella intermedia; Prevotella intermedia, read-out: Minimal Inhibitory Concentration 90% (MIC90)) | MIC50 ([6]; Parvimonas micra, read-out: Minimal Inhibitory Concentration 50% (MIC50)) | MIC90 (Porphyromonas spp.; [17]) | MIC50 [8, 16] | MIC90 (Porphyromonas gingivalis; [17]) | MIC50 [10, 16] | MIC50 ([12]; Prevotella heparinolytica, read-out: Minimal Inhibitory Concentration 50% (MIC50))
0.03 to 1 µg/mL: Minimal Inhibitory Concentration Range (Prevotella intermedia)
1 mg/L: MIC90 (Prevotella bivia; [17]) | MIC50 ([4]; Fusobacterium, GROUP1, read-out: Minimal Inhibitory Concentration 50% (MIC50)) | MIC90 ([6]; Parvimonas micra, read-out: Minimal Inhibitory Concentration 90% (MIC90)) | MIC90 [8, 17] | MIC50 (Bacteroides tectum; Bacteroides pyogenes, read-out: Minimal Inhibitory Concentration 50% (MIC50)) | MIC90 [10, 17] | MIC90 ([12]; Prevotella heparinolytica, read-out: Minimal Inhibitory Concentration 90% (MIC90))
0.5 to 2 µg/mL: Minimal Inhibitory Concentration Range (Bacteroides tectum)
0.5 to 1 µg/mL: Minimal Inhibitory Concentration Range [1] | Minimal Inhibitory Concentration Range [6] | Minimal Inhibitory Concentration Range [12]
0.125 mg/L: MIC50 (Bacteroides gracilis; Campylobacter gracilis, read-out: Minimal Inhibitory Concentration 50% (MIC50)) | MIC50 (Prevotella intermedia; Prevotella intermedia, read-out: Minimal Inhibitory Concentration 50% (MIC50))
